Laboratory results reported in patent publication US11299512B2 (priority 2016, dated 2022).
Read-outs that look alike come from different tables or passages of the source.

Test system: THP1 luciferase reporter cells
Assay: cells
Format: cell-based
[1] = Homo sapiens, THP-1, 16 h, read-out: THP1-ISG-Luc with PFO, EC50
[2] = Homo sapiens, THP-1, 16 h, read-out: THP-ISG-Luc without PFO, EC50
[3] = 16 hours, read-out: THP-ISG-Luc without PFO, EC50
[4] = 16 hours, read-out: THP1-ISG-Luc with PFO, EC50

| SMILES | EC50 [1] | EC50 [2] | EC50 [3] | EC50 [4] | other results |
| --- | --- | --- | --- | --- | --- |
| Nc1nc2c(ccn2[C@@H]2O[C@@H]3COP(=O)(S)O[C@@H]4C(O)[C@H](n5cnc6c(N)ncnc65)O[C@@H]4COP(=O)(S)O[C@H]2C3O)c(=O)[nH]1 (single isomer, unassigned) [EA7] | 0.1 to 1 µM | < 30 µM | – | – | – |
| BP1(=O)OC[C@H]2O[C@@H](n3cnc4c(=O)[nH]c(N)nc43)C(OP(=O)(O)OC[C@H]3O[C@@H](n4cnc5c(N)ncnc54)C(O)C3O1)C2O (stereo in doubt) [EA10] | < 0.1 µM | < 30 µM | – | – | – |
| Nc1nc2c(cnn2[C@@H]2O[C@@H]3COP(=O)(S)OC4C(O)[C@H](n5cnc6c(N)ncnc65)O[C@@H]4COP(=O)(S)OC2C3O)c(=O)[nH]1 (single isomer, unassigned) [EB7] | > 1 µM | > 100 µM | – | – | – |
| Nc1nc2c(ncn2[C@@H]2O[C@@H]3COP(=O)(O)OC4C[C@H](c5ccc6ccc7cccc8ccc5c6c78)O[C@@H]4COP(=O)(S)OC2C3O)c(=O)[nH]1 (single isomer, unassigned) [EC20] | > 1 µM | > 100 µM | – | – | – |
| Nc1nc2c(ncn2[C@@H]2O[C@@H]3COP(=O)(O)OC4C(O)[C@H](n5cnc6c(N)ncnc65)O[C@@H]4COP(=O)(S)OC2C3O)c(=O)[nH]1 (single isomer, unassigned) [Example E8] | 0.1 to 1 µM | – | > 100 µM | – | – |
| COC1C2OP(=O)(O)OC[C@H]3O[C@@H](n4cnc5c(=O)[nH]c(N)nc54)C(OP(=O)(O)OC[C@H]2O[C@H]1n1cnc2c(N)ncnc21)C3OCC(F)(F)F (stereo in doubt) [EC10] | > 1 µM | > 100 µM | – | – | – |
| Nc1nc2c(ncn2[C@@H]2O[C@@H]3COP(=O)(O)OC4C[C@H](c5cccc6ccccc56)O[C@@H]4COP(=O)(O)OC2C3OCC(F)(F)F)c(=O)[nH]1 (stereo in doubt) [EC19] | > 1 µM | > 100 µM | – | – | – |
| Nc1nc2c(ccn2[C@@H]2O[C@@H]3COP(=O)(S)OC4C(O)[C@@H](COP(=O)(O)OC3C2O)O[C@H]4n2ccc3c(N)ncnc32)c(=O)[nH]1 (single isomer, unassigned) [EC9] | – | – | > 100 µM | > 1 µM | – |
| Nc1nc2c(ncn2[C@@H]2O[C@@H]3COP(=O)(S)OC4C(O)[C@H](n5ncc6c(N)ncnc65)O[C@@H]4COP(=O)(S)OC2C3O)c(=O)[nH]1 (single isomer, unassigned) [EA5] | – | – | > 100 µM | > 1 µM | – |
| C#CCOc1nc(N)nc2c1ncn2[C@@H]1O[C@@H]2COP(=O)(O)OC3C(O)[C@H](n4cnc5c(N)ncnc54)O[C@@H]3COP(=O)(O)OC1C2O (stereo in doubt) [Example E4] | < 0.1 µM | < 30 µM | – | – | – |
| Nc1nc2c(ncn2[C@@H]2O[C@@H]3COP(=O)(S)OC4C(O)[C@H](n5cnc6c(N)ncnc65)O[C@@H]4COP(=O)(S)OC2C3O)c(=O)[nH]1 (single isomer, unassigned) [Example E13] | – | – | > 100 µM | 0.1 to 1 µM | – |
| Nc1nc2c(ccn2[C@@H]2O[C@@H]3COP(=O)(O)OC4C(O)[C@@H](COP(=O)(S)OC2C3O)O[C@H]4n2cnc3c(N)ncnc32)c(=O)[nH]1 (single isomer, unassigned) [EC15] | – | – | < 30 µM | 0.1 to 1 µM | – |
| Nc1nc2c(ncn2[C@@H]2O[C@@H]3COP(=O)(O)OC4C(O)[C@H](n5cnc6c(N)ncnc65)O[C@@H]4COP(=O)(O)OC2C3CCO)c(=O)[nH]1 (stereo in doubt) [EC12] | < 0.1 µM | < 30 µM | – | – | – |
| Nc1nc2c(ccn2[C@@H]2O[C@@H]3COP(=O)(S)OC4C(O)[C@H](n5cnc6c(N)ncnc65)O[C@@H]4COP(=O)(S)OC2C3O)c(=O)[nH]1 (single isomer, unassigned) [EA6] | – | – | > 100 µM | > 1 µM | – |
| Nc1nc2c(ccn2[C@@H]2O[C@@H]3COP(=O)(S)OC4C(O)[C@@H](COP(=O)(O)OC3C2O)O[C@H]4n2ccc3c(=O)[nH]c(N)nc32)c(=O)[nH]1 (single isomer, unassigned) [EC4] | – | – | > 100 µM | > 1 µM | – |
| Nc1nc2c(ncn2[C@@H]2O[C@@H]3COP(=O)(O)OC4C(O)[C@H](n5cnc6c5ncn5ccnc65)O[C@@H]4COP(=O)(O)OC2C3OCC(F)(F)F)c(=O)[nH]1 (stereo in doubt) [EC26] | 0.1 to 1 µM | > 100 µM | – | – | – |

| SMILES | EC50 [1] | EC50 [2] | EC50 [3] | EC50 [4] | other results |
| --- | --- | --- | --- | --- | --- |
| Nc1ncnc2c1ccn2[C@@H]1O[C@@H]2COP(=O)(S)OC3C(O)[C@@H](COP(=O)(O)OC2C1O)O[C@H]3n1ccc2c(N)ncnc21 (stereo partly shown) [EC7] | – | – | > 100 µM | > 1 µM | – |
| Nc1nc2c(ccn2[C@@H]2O[C@@H]3COP(=O)(O)OC4C(O)[C@H](n5cnc6c(N)ncnc65)O[C@@H]4COP(=O)(S)OC2C3O)c(=O)[nH]1 (single isomer, unassigned) [EB4] | > 1 µM | 30 to 100 µM | – | – | – |
| Nc1nc2c(ncn2[C@@H]2O[C@@H]3COP(=O)(O)OC4C(O)[C@H](n5ccc6c(N)ncnc65)O[C@@H]4COP(=O)(O)OC2C3OCC(F)(F)F)c(=O)[nH]1 (stereo in doubt) [EC3] | 0.1 to 1 µM | < 30 µM | – | – | – |
| Nc1nc2c(ccn2[C@@H]2O[C@@H]3COP(=O)(S)OC4C(O)[C@H](n5cnc6c(N)ncnc65)O[C@@H]4COP(=O)(S)OC2C3O)c(=O)[nH]1 (single isomer, unassigned) [EA8] | – | – | < 30 µM | 0.1 to 1 µM | – |
| Nc1nc2c(ncn2[C@@H]2O[C@@H]3COP(=O)(S)OC4C(O)[C@H](n5cnc6c(N)ncnc65)O[C@@H]4COP(=O)(S)OC2C3O)c(=O)[nH]1 (single isomer, unassigned) [Example E12] | < 0.1 µM | – | < 30 µM | – | – |
| Nc1nc2c(ncn2[C@@H]2O[C@@H]3COP(=O)(O)OC4C(O)[C@H](n5ccc6c(N)ncnc65)O[C@@H]4COP(=O)(O)OC2C3O)c(=O)[nH]1 (stereo in doubt) [Example E5] | > 1 µM | > 100 µM | – | – | – |
| CCCC1C2OP(=O)(O)OC[C@H]3O[C@@H](n4cnc5c(N)ncnc54)C(O)C3OP(=O)(O)OC[C@H]1O[C@H]2n1cnc2c(=O)[nH]c(N)nc21 (stereo in doubt) [EC24] | < 0.1 µM | < 30 µM | – | – | – |
| BP1(=O)OC[C@H]2O[C@@H](n3cnc4c(N)ncnc43)C(O)[C@H]2OP(=O)(O)OC[C@H]2O[C@@H](n3cnc4c(=O)[nH]c(N)nc43)[C@@H](O1)C2O (single isomer, unassigned) [Example E25] | < 0.1 µM | < 30 µM | – | – | – |
| Nc1nc2c(ccn2[C@@H]2O[C@@H]3COP(=O)(O)OC4C(O)[C@H](n5cnc6c(N)ncnc65)O[C@@H]4COP(=O)(S)OC2C3O)c(=O)[nH]1 (stereo in doubt) [EB3] | < 0.1 µM | < 30 µM | – | – | – |
| BP1(=O)OC[C@H]2O[C@@H](n3cnc4c(=O)[nH]c(N)nc43)[C@@H](OP(B)(=O)OC[C@H]3O[C@@H](n4cnc5c(N)ncnc54)[C@@H](O)C3O1)C2O (stereo in doubt) [EA11] | < 0.1 µM | < 30 µM | – | – | – |
| Nc1nc2c(ccn2[C@@H]2O[C@@H]3COP(=O)(O)OC4C(O)[C@H](n5ccc6c(N)ncnc65)O[C@@H]4COP(=O)(S)OC2C3O)c(=O)[nH]1 (single isomer, unassigned) [EB1] | – | 30 to 100 µM | – | > 1 µM | – |
| Nc1nc2c(ncn2[C@@H]2O[C@@H]3COP(=O)(S)OC4C(O)[C@H](n5nnc6c(N)ncnc65)O[C@@H]4COP(=O)(S)OC2C3O)c(=O)[nH]1 (stereo partly shown) [Example E19] | > 1 µM | > 100 µM | – | – | – |
| Nc1nc2c(ncn2[C@@H]2O[C@@H]3COP(=O)(O)OC4C(O)[C@H](n5cnc6c(N)ncnc65)O[C@@H]4CNc4c(c(=O)c4=O)NC2C3O)c(=O)[nH]1 (stereo in doubt) [EC22] | > 1 µM | > 100 µM | – | – | – |
| Nc1nc2c(ncn2[C@@H]2O[C@@H]3COP(=O)(O)O[C@@H]4C(O)[C@H](n5cnc6c(N)ncnc65)O[C@@H]4COP(=O)(N4CCOCC4)OC2[C@H]3O)c(=O)[nH]1 (stereo partly shown) [Example E24] | – | – | – | – | EC50 (Homo sapiens, THP-1, 16 hours, read-out: THP1-ISG-Luc with PFO, EC50): 0.1 to 1 µM; EC50 (Homo sapiens, THP-1, 16 hours, read-out: THP-ISG-Luc without PFO, EC50): < 30 µM |
| Nc1nc2c(ncn2[C@@H]2O[C@@H]3COP(=O)(S)OC4C(O)[C@H](n5cnc6c(N)ncnc65)O[C@@H]4COP(=O)(S)OC2C3O)c(=O)[nH]1 (single isomer, unassigned) [Example E14] | – | – | > 100 µM | 0.1 to 1 µM | – |
| Nc1nc2c(ncn2[C@@H]2O[C@@H]3COP(=O)(O)OC4C[C@H](c5ccc6ccc7cccc8ccc5c6c78)O[C@@H]4COP(=O)(S)OC2C3O)c(=O)[nH]1 (single isomer, unassigned) [EC21] | – | – | > 100 µM | > 1 µM | – |
